According to PubChem BioAssay AID248 (DTP/NCI, 2004):
“And” between values parts separate entries of the source, which are not always exact repeats. Equal entries are not always repeated. Inconclusive results and toxic doses are left out. Cut-off read from the data, not from the text of the source: active = T/C of 150% or more; inactive = T/C below 125%.

System: L1210 leukemia ip in BDF1 mice, survival T/C
Assay: NCI In Vivo Anticancer Drug Screen. Data for tumor model L1210 Leukemia (intraperitoneal) in B6D2F1 (BDF1) mice
Settings: endpoint: mean survival time, higher = longer survival
Method in brief: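 Value reflects the ratio of survival in compound-treated mice to survival in vehicle-treated controls, with both groups carrying the same transplanted tumor.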

[1] = dose: 100.0 mg/kg/injection, schedule: Q04DX003 (ip), vehicle: Klucel (hydroxypropylcellulose) (HPC)
[2] = dose: 200.0 mg/kg/injection, schedule: Q04DX003 (ip), vehicle: Klucel (hydroxypropylcellulose) (HPC)
[3] = dose: 400.0 mg/kg/injection, schedule: Q04DX003 (ip), vehicle: Klucel (hydroxypropylcellulose) (HPC)
[4] = dose: 100.0 mg/kg/injection, schedule: Q04DX002 (ip), vehicle: Klucel (hydroxypropylcellulose) (HPC)
[5] = dose: 200.0 mg/kg/injection, schedule: Q04DX002 (ip), vehicle: Klucel (hydroxypropylcellulose) (HPC)
[6] = dose: 400.0 mg/kg/injection, schedule: Q04DX002 (ip), vehicle: Klucel (hydroxypropylcellulose) (HPC)
[7] = dose: 100.0 mg/kg/injection, schedule: Q04DX003 (ip), vehicle: saline with Tween-80
[8] = dose: 200.0 mg/kg/injection, schedule: Q04DX003 (ip), vehicle: saline with Tween-80
[9] = dose: 400.0 mg/kg/injection, schedule: Q04DX003 (ip), vehicle: saline with Tween-80
[10] = dose: 100.0 mg/kg/injection, schedule: Q01DX009 (ip), vehicle: saline with Tween-80
[11] = dose: 200.0 mg/kg/injection, schedule: Q01DX009 (ip), vehicle: saline with Tween-80
[12] = dose: 100.0 mg/kg/injection, schedule: Q01DX001 (ip), vehicle: carboxymethylcellulose (CMC)
[13] = dose: 200.0 mg/kg/injection, schedule: Q01DX001 (ip), vehicle: carboxymethylcellulose (CMC)
[14] = dose: 400.0 mg/kg/injection, schedule: Q01DX001 (ip), vehicle: carboxymethylcellulose (CMC)

Measured: T/C

O=C(Nc1ccc(F)cc1)C(c1ccccc1)c1ccccc1
inactive: dose: 100.0 mg/kg/injection, schedule: Q01DX009 (ip), vehicle: Klucel (hydroxypropylcellulose) (HPC) 108 % of control | [1] 90 % of control | dose: 200.0 mg/kg/injection, schedule: Q01DX009 (ip), vehicle: Klucel (hydroxypropylcellulose) (HPC) 101 % of control | [2] 93 % of control | dose: 400.0 mg/kg/injection, schedule: Q01DX009 (ip), vehicle: Klucel (hydroxypropylcellulose) (HPC) 95 % of control | [3] 88 % of control

COc1ccc(/C=C/c2ccc3ccccc3n2)cc1
inactive: [4] 111 % of control | [5] 97 % of control | [6] 105 % of control

CC1(C)CC(=O)C=C(OS(=O)(=O)C(F)(F)F)C1
inactive: dose: 12.5 mg/kg/injection, schedule: Q01DX009 (ip), vehicle: DMSO 110 % of control | dose: 25.0 mg/kg/injection, schedule: Q01DX009 (ip), vehicle: DMSO 101 % of control | dose: 50.0 mg/kg/injection, schedule: Q01DX009 (ip), vehicle: DMSO 103 % of control | dose: 100.0 mg/kg/injection, schedule: Q01DX009 (ip), vehicle: DMSO 94 % of control

Cc1no[n+]([O-])c1[N+](=O)[O-]
inactive: dose: 5.0 mg/kg/injection, schedule: Q01DX009 (ip), vehicle: saline 100 % of control | dose: 10.0 mg/kg/injection, schedule: Q01DX009 (ip), vehicle: saline 101 % of control | dose: 20.0 mg/kg/injection, schedule: Q01DX009 (ip), vehicle: saline 102 % of control

CCCCCCCCCCCCCCCCCC(=O)OCC(COC(=O)CCCCCCCC(CO)CCCCCCCCC)OC(=O)CCCCCCCC(CO)CCCCCCCCC (centres undefined)
inactive: [4] 101 % of control | [5] 101 % of control | [6] 101 % of control

CC1(C)CC(C(N)=O)C(C)(C)N1O (centres undefined)
inactive: dose: 75.0 mg/kg/injection, schedule: Q01DX009 (ip), vehicle: other 104 % of control | dose: 150.0 mg/kg/injection, schedule: Q01DX009 (ip), vehicle: other 101 % of control | dose: 300.0 mg/kg/injection, schedule: Q01DX009 (ip), vehicle: other 100 % of control

O=C(O)CCCc1cccc2ccccc12
inactive: dose: 37.0 mg/kg/injection, schedule: Q01DX009 (ip), vehicle: gum acacia 97 % of control | dose: 75.0 mg/kg/injection, schedule: Q01DX009 (ip), vehicle: gum acacia 103 % of control | dose: 100.0 mg/kg/injection, schedule: Q04DX003 (ip), vehicle: gum acacia 97 % of control | dose: 150.0 mg/kg/injection, schedule: Q01DX009 (ip), vehicle: gum acacia 92 % of control | dose: 200.0 mg/kg/injection, schedule: Q04DX003 (ip), vehicle: gum acacia 86 % of control

Cc1cc(O)c(O)c([N+](=O)[O-])c1
inactive: [7] 96 % of control | [8] 92 % of control | [9] 101 % of control

CCCCCCCCC1NC1CCCCCCCCO (centres undefined)
inactive: [4] 103 % of control | [5] 103 % of control | [6] 100 % of control

c1ccc2ncccc2c1
inactive: [1] 101 % of control | [2] 95 % of control

CC(=O)c1cccc(C#N)c1
inactive: [10] 100 % of control | [11] 97 % of control | dose: 400.0 mg/kg/injection, schedule: Q01DX009 (ip), vehicle: saline with Tween-80 105 % of control

NC(=S)N/N=C\c1ccccc1/C=N/NC(N)=S
inactive: dose: 50.0 mg/kg/injection, schedule: Q01DX001 (ip), vehicle: carboxymethylcellulose (CMC) 109 % of control | [12] 98 % of control | [13] 98 % of control | [14] 98 % of control

CSC(=N)c1cccc(OCCCOc2ccccc2)c1
inactive: dose: 25.0 mg/kg/injection, schedule: Q01DX009 (ip), vehicle: saline with Tween-80 94 % of control | dose: 50.0 mg/kg/injection, schedule: Q01DX009 (ip), vehicle: saline with Tween-80 90 % of control | [10] 90 % of control | [11] 88 % of control

CCCNC(=O)c1ccc(NC(=O)Nc2ccc(C3=NCCN3)cc2)cc1NC(=O)Nc1ccc(C2=NCCN2)cc1
inactive: dose: 25.0 mg/kg/injection, schedule: Q01DX Z (ip), vehicle: carboxymethylcellulose (CMC) 113 % of control | dose: 50.0 mg/kg/injection, schedule: Q01DX Z (ip), vehicle: carboxymethylcellulose (CMC) 117 % of control | dose: 100.0 mg/kg/injection, schedule: Q01DX Z (ip), vehicle: carboxymethylcellulose (CMC) 108 % of control and 113 % of control

CCOC(=O)NNP(=O)(NNC(=O)OCC)c1ccccc1
inactive: [12] 101 % of control | dose: 100.0 mg/kg/injection, schedule: Q01DX009 (ip), vehicle: carboxymethylcellulose (CMC) 94 % of control | dose: 100.0 mg/kg/injection, schedule: Q04DX002 (ip), vehicle: carboxymethylcellulose (CMC) 98 % of control | dose: 100.0 mg/kg/injection, schedule: Q04DX003 (ip), vehicle: carboxymethylcellulose (CMC) 98 % of control | [13] 104 % of control | dose: 200.0 mg/kg/injection, schedule: Q01DX009 (ip), vehicle: carboxymethylcellulose (CMC) 94 % of control and 98 % of control | dose: 200.0 mg/kg/injection, schedule: Q04DX002 (ip), vehicle: carboxymethylcellulose (CMC) 91 % of control | dose: 200.0 mg/kg/injection, schedule: Q04DX003 (ip), vehicle: carboxymethylcellulose (CMC) 102 % of control | [14] 92 % of control | dose: 400.0 mg/kg/injection, schedule: Q01DX009 (ip), vehicle: carboxymethylcellulose (CMC) 108 % of control and 109 % of control | dose: 400.0 mg/kg/injection, schedule: Q04DX002 (ip), vehicle: carboxymethylcellulose (CMC) 94 % of control | dose: 400.0 mg/kg/injection, schedule: Q04DX003 (ip), vehicle: carboxymethylcellulose (CMC) 101 % of control

O=[N+]([O-])c1ccc(C2=Cc3cccn3-c3ccccc3S2(=O)=O)cc1
inactive: [1] 96 % of control | [2] 95 % of control | [3] 98 % of control

O=C(O)c1cscc1Cc1ccccc1
inactive: [7] 90 % of control | [8] 94 % of control | [9] 95 % of control

O=C(O)c1ccnc(C(=O)O)c1
inactive: dose: 100.0 mg/kg/injection, schedule: Q01DX009 (ip), vehicle: saline 89 % of control | dose: 100.0 mg/kg/injection, schedule: Q04DX003 (ip), vehicle: saline sonified 98 % of control | dose: 200.0 mg/kg/injection, schedule: Q01DX009 (ip), vehicle: saline 93 % of control | dose: 200.0 mg/kg/injection, schedule: Q04DX003 (ip), vehicle: saline sonified 93 % of control | dose: 400.0 mg/kg/injection, schedule: Q01DX009 (ip), vehicle: saline 97 % of control | dose: 400.0 mg/kg/injection, schedule: Q04DX003 (ip), vehicle: saline sonified 92 % of control

CCCC1C(CC)CC(CC)C(O)C1(CC)CO (centres undefined)
inactive: dose: 100.0 mg/kg/injection, schedule: Q01DX009 (ip), vehicle: other 98 % of control | dose: 200.0 mg/kg/injection, schedule: Q01DX009 (ip), vehicle: other 95 % of control | dose: 400.0 mg/kg/injection, schedule: Q01DX009 (ip), vehicle: other 87 % of control

CN(CCO)C(=O)C1C(c2ccccc2)C1c1ccccc1 (centres undefined)
inactive: [4] 100 % of control | [5] 94 % of control | [6] 97 % of control
